Measurements taken from publication PMC6158189, “A pharmacological probe identifies cystathionine β-synthase as a new negative regulator for ferroptosis” (Cell Death & Disease, 2018).
Several values for one entry are separate records, joined by “and”; a condition that tells them apart may be missing. Equal values may be shown once.

Tests used:
[1] = target: T1, hCBS-FL (Homo sapiens, UniProt P35520); assay: CBS enzyme assay, H2S quantified by methylene blue method; assay type: biochemical; set-up: human CBS or hCSE full-length (CBS-FL or CSE) was subcloned into pGEX-KG, pcDNA3 or pCDH vector; GST (N); made in house; host or cells: E. coli BL21; settings: 150 nM hCBS-FL, 200 μM SAM, 4 mM L-Cys, 4 mM D,L-Hcys, Tris-HCl pH 8.6, 80 min
T1 sequence (P35520 1-551): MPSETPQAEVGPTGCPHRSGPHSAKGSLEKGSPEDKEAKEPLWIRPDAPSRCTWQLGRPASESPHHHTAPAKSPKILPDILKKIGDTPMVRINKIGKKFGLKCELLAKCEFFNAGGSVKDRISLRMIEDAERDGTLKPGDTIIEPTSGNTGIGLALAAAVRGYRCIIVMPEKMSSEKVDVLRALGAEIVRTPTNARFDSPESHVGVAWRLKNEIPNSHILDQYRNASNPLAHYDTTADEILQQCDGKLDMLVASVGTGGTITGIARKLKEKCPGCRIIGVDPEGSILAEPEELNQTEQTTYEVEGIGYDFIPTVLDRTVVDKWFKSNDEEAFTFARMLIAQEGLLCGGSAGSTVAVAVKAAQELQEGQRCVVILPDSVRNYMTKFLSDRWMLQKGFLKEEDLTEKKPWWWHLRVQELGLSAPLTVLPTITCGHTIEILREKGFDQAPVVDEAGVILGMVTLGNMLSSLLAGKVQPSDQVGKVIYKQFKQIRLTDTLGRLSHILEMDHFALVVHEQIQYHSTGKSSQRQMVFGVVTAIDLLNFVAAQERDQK
Method: Fig. 1 CH004 inhibits the activity of hCBS in the in vitro purified enzyme assays under different assay conditions. a A scheme for the cascade enzymatic reactions catalyzed by CBS or CSE. Cth, cystathionine. b, c Inhibitory effects of CH004 on the activity of hCBS-413 (b) or hCSE (c). The enzyme activities were monitored for various concentrations of CH004 under the standard conditions (50 mM Tris-HCl, pH 8.6; “Materials and Methods” section). The result is shown as percentages of the control (DMSO, 100%). The data are shown as means ± SDS (n = 3). d The dose-dependent inhibition of CH004 on the hCBS-413 activity was measured by the tandem-well-based assay under the standard conditions except using 50 mM Hepes buffer (pH 7.4) instead of 50 mM Tris-HCl (pH 8.6). Means ± SDs (n = 3). e The dose-dependent inhibition of CH004 on the CBS activity measured by methylene blue method. […] After 80 min, the assay was stopped by added 10 μL 10% ZnAC and the generated H2S was quantified by N,N-dimethyl-p-phenylenediamine to give an absorbance at 670 nm (for details, see Materials and Methods section; ref. [53]). […]
^3The IC50 were determined for hCBS-FL by Methyl Blue method (ref. 1).

[2] = target: T2, hCBS Q222A (Homo sapiens, UniProt P35520, Q222A); assay: purified hCBS mutant enzyme assay; assay type: biochemical
T2 construct: hCBS-413 (a C-terminal truncated hCBS 1–413); GST (N); made in house; host or cells: E. coli BL21
T2 sequence (P35520 1-413 Q222A): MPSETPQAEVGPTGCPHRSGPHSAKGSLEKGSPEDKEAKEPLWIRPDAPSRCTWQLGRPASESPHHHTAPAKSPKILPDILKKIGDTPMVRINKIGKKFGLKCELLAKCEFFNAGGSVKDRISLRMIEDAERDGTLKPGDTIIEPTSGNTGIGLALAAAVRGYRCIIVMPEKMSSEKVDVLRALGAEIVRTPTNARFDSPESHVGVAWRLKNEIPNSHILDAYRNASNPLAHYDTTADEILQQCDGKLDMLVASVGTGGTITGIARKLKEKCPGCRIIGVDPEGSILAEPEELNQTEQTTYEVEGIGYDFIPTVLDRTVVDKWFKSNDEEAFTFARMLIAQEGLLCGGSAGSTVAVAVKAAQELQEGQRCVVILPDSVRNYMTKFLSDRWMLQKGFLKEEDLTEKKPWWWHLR
Method: The IC50 values of CH004 for hCBS-413, hCBS-413 mutants, hCBS-FL, hCSE or hDDC were determined according to the standard assay conditions otherwise indicated.
Figure S6. […] HEK293T cells stably expressing CBS Q222A mutant (293T-CBS Q222A) were treated with 0 (DMSO control), 5 or 10 μM CH004 for 8 h before staining with the AzMC to detect H2S. The overlaid images of fluorescent and bright-field images are shown in the left panel, and the corresponding fluorescent (blue, H2S) and bright-field images are shown in the middle and right panels, respectively. Bars: 50 μm. [picture] Figure S7. The CH004-insensitive CBS Q222A mutant can be inhibited by HA. (A) HEK293T cells stably expressing CBS Q222A mutant (293T-CBS Q222A) were treated with 0 (DMSO, control), 5 or 10 μM of CH004, 1 mM or 2 mM of HA for 8 h before staining with the AzMC to detect H2S. The overlaid images of fluorescent and bright-field images are shown in the upper panel, and the corresponding fluorescent (blue, H2S) and bright-field images are shown in the middle and lower panels, respectively. Bars: 50 μm. (B) Quantification of the mean fluorescent density of H2S (blue). The intensity of blue light of the fluorescent images was quantified by ImageJ software, quantified and deduced the background signal in HEK293T-EV cells (Supplementary Figure S3B), normalized by the corresponding cell area and expressed as percentages of control (DMSO group, 100%). Means ± SDs (n=3). One-way ANOVA with Bonferroni post-tests was used for the analysis. *, p< 0.05; **, p< 0.01; n.s. no significance. The images are one representative from three independent experiments. (C) The inhibitory effect of 1 mM HA on purified CBS Q222A mutant. The assay was performed using 60 mM Cys and 1.2 μM CBS-413 Q222A mutant. The data were expressed as percentages of control (DMSO, 100%). Means ± SDs (n=4). [picture]
Table S2. Inhibitory effects of CH004 on hCBS WT and mutants.

In the case of `Cn1nc(Cc2ccccc2)nc2c(=O)n(C)c(=O)nc1-2` [CH004, 3-benzyl-1,6-dimethylpyrimido[5,4-e][1,2,4]triazine-5,7(1H,6H)-dione], the IC50 [1] is reported as 1710 nM and 1700 nM, the IC50 [2] is reported as 27600 ± 900 nM and the “IC50 fold to WT, Q222A” value [2] is reported as 23.
